Measured values: patent EP0397025B1, “[2-(2-pyridyl)ethyl]-methylamine salts” (PRODOTTI FORMENTI S.r.l., priority 1989, dated 1990)
Counter-ions that a name gives are not always drawn. Like-named read-outs stand apart in the source and are kept apart here.

Legend:
[1] = test system: gastric mucosa; assay: Effect on gastric erosions (Adami index); format: in vivo; details: for N^o GASTRIC EROSIONS / SEVERITY: Adami index
Method: A comparison test between betahistine hydrochloride and betahistine fumarate was carried out, evaluating the toxicity (LD₅₀) and the effect on gastric erosions, at equimolar doses.
Admnistration volume = 15 ml/kg Evaluation of the stomach conditions = 1h after administration according to Adami index.

[2] = pH of the administered treatment; format: physicochemical; details: treatment as administered in the gastric erosion test
[3] = Bioavailability test on rats; details: rat, in vivo
Method: The AUCs, in the time 0-3 hours, for betahistine fumarate and betahistine dihydrochloride evidence no significant differences (8.2 vs 7.6 h.µg/ml, respectively).

[4] = Partition coefficient octanol/buffer; format: physicochemical; details: for logD: octanol/buffer, pH 9, octanol/buffer pH = 9.0
[5] = Solubility; format: physicochemical
[6] = 20 mmoles/kg, administration volume 15 ml/kg, 1h after administration, dihydrochloride
[7] = 20 mmoles/kg, administration volume 15 ml/kg, 1h after administration

CNCCc1ccccn1 [BETAHISTINE DIHYDROCHLORIDE, betahistine dihydrochloride, reference compound]
N^o GASTRIC EROSIONS [1, 6]: 7.92±1.26 | SEVERITY [1, 6]: 3.85±0.35 | % ANIMALS WITH EROSIONS: serious erosions [1, 6]: 92.32% serious erosions | pH ([2]; dihydrochloride): BETAHISTINE DIHYDROCHLORIDE pH=1.6 | AUC [3]: 7600 ng·h/mL | bioavailability [3]: substantially the same bioavailability

CNCCc1ccccn1 [BETAHISTINE FUMARATE, Betahistine Fumarate]
% ANIMALS WITH EROSIONS: diffused bleeding [1, 7]: 20% | % ANIMALS WITH EROSIONS: serious erosions [1, 7]: 10% | N^o GASTRIC EROSIONS [1, 7]: 0.3±0.3 | SEVERITY [1, 7]: 0.6±0.31 | effect on gastric erosions ([1]; equimolar doses, compared with the hydrochloride): markedly improved | pH [2]: BETAHISTINE FUMARATE pH = 4.19 | plasmatic curve peak after the administration [3]: 15 min | AUC at 3 h ([3]; rats, 0-3 hours, read-out: AUCs, in the time 0-3 hours): 8200 ng·h/mL | logD ([4]; read-out: Partition coefficient P (converted)): -0.904 | logD ([4]; read-out: logP): 0.904 | Solubility in acetone ([5]; acetone): poorly soluble | Solubility in acid aqueous solutions ([5]; acid aqueous solutions): soluble | Solubility in chloroform ([5]; chloroform): almost unsoluble | Solubility in ethanol ([5]; ethanol): soluble | Solubility in methanol ([5]; methanol): soluble | Solubility in water ([5]; water): soluble

CNCCc1ccccn1 [BETAHISTINE, [2-(2-Pyridyl)ethyl]-methylamine]
Partition coefficient P ([4]; octanol/buffer pH = 9.0): 0.147
